The NIST ThermoML archive (doi:10.1016/j.jct.2015.12.014)

Columns and labels:
[1] = Crystal; for vapor or sublimation pressure: Calculated from knudsen effusion weight loss
[2] = Molar enthalpy of transition or fusion; conditions: Crystal; DSC
[3] = molar heat capacity at constant pressure; conditions: 101.33 kPa, Crystal, Small sample (50 mg) DSC

O=C(O)/C=C\c1ccccc1 [cis-cinnamic acid]
Conditions	Normal melting temperature [°C]	molar heat capacity at constant pressure [J/K/mol]	vapor or sublimation pressure [kPa]
[1], 306.21 K	–	–	8.16e-05
[1], 308.18 K	–	–	0.0001123
[1], 310.2 K	–	–	0.0001346
[1], 312.15 K	–	–	0.0001819
[1], 314.14 K	–	–	0.0002297
[1], 316.16 K	–	–	0.0002837
[1], 318.1 K	–	–	0.0003808
[1], 320.19 K	–	–	0.0004592
[1], 322.05 K	–	–	0.000572
[1], 324.08 K	–	–	0.0007647
[1], 326.1 K	–	–	0.0009201
[1], DTA	67.0	–	–
[3], 257.15 K	–	155	–
[3], 258.15 K	–	155.9	–
[3], 259.15 K	–	156	–
[3], 260.15 K	–	156.5	–
[3], 261.15 K	–	156.9	–
[3], 262.15 K	–	157.5	–
[3], 263.15 K	–	158.1	–
[3], 264.15 K	–	158.7	–
[3], 265.15 K	–	159.1	–
[3], 266.15 K	–	159.7	–
[3], 267.15 K	–	160.2	–
[3], 268.15 K	–	160.8	–
[3], 269.15 K	–	161.2	–
[3], 270.15 K	–	161.6	–
[3], 271.15 K	–	162.2	–
[3], 272.15 K	–	163	–
[3], 273.15 K	–	163.3	–
[3], 274.15 K	–	163.9	–
[3], 275.15 K	–	164.3	–
[3], 276.15 K	–	165.3	–
[3], 277.15 K	–	165.8	–
[3], 278.15 K	–	166.2	–
[3], 279.15 K	–	166.7	–
[3], 280.15 K	–	167.3	–
[3], 281.15 K	–	167.9	–
[3], 282.15 K	–	168.5	–
[3], 283.15 K	–	169.1	–
[3], 284.15 K	–	169.5	–
[3], 285.15 K	–	170.4	–
[3], 286.15 K	–	170.8	–
[3], 287.15 K	–	171.4	–
[3], 288.15 K	–	171.9	–
[3], 289.15 K	–	172.6	–
[3], 290.15 K	–	173.2	–
[3], 291.15 K	–	173.9	–
[3], 292.15 K	–	174.5	–
[3], 293.15 K	–	175.1	–
[3], 294.15 K	–	175.9	–
[3], 295.15 K	–	176.5	–
[3], 296.15 K	–	176.9	–
[3], 297.15 K	–	177.6	–
[3], 298.15 K	–	178.1	–
[3], 299.15 K	–	178.7	–
[3], 300.15 K	–	179.1	–
[3], 301.15 K	–	179.9	–
[3], 302.15 K	–	180.6	–
[3], 303.15 K	–	181.3	–
[3], 304.15 K	–	182.1	–
[3], 305.15 K	–	183	–
[3], 306.15 K	–	183.7	–
[3], 307.15 K	–	184.6	–
[3], 308.15 K	–	185.3	–
[3], 309.15 K	–	185.9	–
[3], 310.15 K	–	186.8	–
[3], 311.15 K	–	187.9	–
[3], 312.15 K	–	188.6	–
[3], 313.15 K	–	189.3	–
[3], 314.15 K	–	190.2	–
[3], 315.15 K	–	191.3	–
[3], 316.15 K	–	192.3	–
[3], 317.15 K	–	193.5	–
[3], 318.15 K	–	194.5	–
[3], 319.15 K	–	195.9	–
[3], 320.15 K	–	197.5	–
[3], 321.15 K	–	199.1	–
[3], 322.15 K	–	201.1	–

Conditions	Molar enthalpy of transition or fusion [kcal/mol]
[2]	4.02
